Among the test systems are HL-60(TB) leukemia; IGROV1 ovarian; LOX IMVI melanoma; OVCAR-8 ovarian; NCI-H522 lung; SR leukemia; SN12C renal; KM12 colon; EKVX NSCLC; PC-3 prostate.
What all share (assay): DTP human tumour cell line panel, 48 h

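Method: 48-hour compound exposure of cells in 96-well plates, five concentrations, linear interpolation of endpoints. Abbreviation: GI50, concentration required for 50% inhibition of growth. TGI: total growth inhibition.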 A value given as a limit tells only on which side of the number the result lay.

As to `NP(=O)(OCC1=CC(=O)c2ccccc2C1=O)N(CCBr)CCBr` (stereo unspecified), the TGI (usually the concentration giving total growth inhibition) in the assay on HL-60(TB) leukemia was > 100 µM; in the assay with IGROV1 ovarian it was 38.3 µM; in the assay with LOX IMVI melanoma, 29.1 µM; in the assay with OVCAR-8 ovarian it was 37.2 µM; in the assay on NCI-H522 lung, 10.9 µM; in the assay with SR leukemia, 9.75 µM. Besides, the TGI was 33.9 µM with SN12C renal, 25 µM with KM12 colon, 34.6 µM in the assay on EKVX NSCLC and 46 µM in the assay with PC-3 prostate.

As to `N#C/C(=C\n1ccc(=O)[nH]c1=S)C(N)=O`, the TGI in the assay on HL-60(TB) leukemia, with IGROV1 ovarian, in the assay with LOX IMVI melanoma, in the assay on OVCAR-8 ovarian, with NCI-H522 lung and with SR leukemia was > 100 µM throughout. In addition, the TGI with SN12C renal, in the assay with KM12 colon, in the assay on EKVX NSCLC and with PC-3 prostate was > 100 µM in each case.

Regarding `Cc1ccc2c(c1)[nH]c1cc(C(F)(F)F)ccc1[p+]2=O` (stereo unspecified), the TGI is 56.2 µM in the assay with HL-60(TB) leukemia; > 100 µM with IGROV1 ovarian; > 100 µM with LOX IMVI melanoma; > 100 µM in the assay with OVCAR-8 ovarian; > 100 µM in the assay on NCI-H522 lung; > 100 µM in the assay on SR leukemia. Moreover, the TGI is > 100 µM in the assay with SN12C renal, > 100 µM with KM12 colon, 22.2 µM in the assay with EKVX NSCLC and 73.5 µM with PC-3 prostate.

In the case of `Cc1ccc([C@H]2CC(=O)C[C@H](c3ccc(C)cc3)C23C(=O)c2ccccc2C3=O)cc1`, the TGI in the assay with HL-60(TB) leukemia is 33.2 µM; in the assay on IGROV1 ovarian, > 100 µM; in the assay on LOX IMVI melanoma it was > 100 µM; in the assay on OVCAR-8 ovarian, > 100 µM; with NCI-H522 lung it was 26.5 µM; in the assay on SR leukemia it was 34.3 µM. The TGI with SN12C renal is > 100 µM; with KM12 colon it was > 100 µM; in the assay on EKVX NSCLC it was > 100 µM; with PC-3 prostate, 84.5 µM.

As for `CN(C)Cc1cc(C(=O)/C=C/c2ccccc2Cl)cc(CN(C)C)c1O`, the TGI in the assay on HL-60(TB) leukemia stood at 27.2 µM; with IGROV1 ovarian it was 28 µM; in the assay on LOX IMVI melanoma, 13.5 µM; in the assay with OVCAR-8 ovarian it was 31.9 µM; in the assay with NCI-H522 lung, 18 µM; in the assay on SR leukemia it was 35.5 µM. Besides, the TGI with SN12C renal stood at 23.6 µM; in the assay with KM12 colon it was 20.3 µM; with EKVX NSCLC, 30.6 µM; in the assay on PC-3 prostate, 29.2 µM.

As to `CCC1(C)N=C(c2cnccn2)NN1c1ccc(Cl)cc1` (stereo unspecified), the TGI in the assay on HL-60(TB) leukemia was > 100 µM; in the assay on IGROV1 ovarian, > 100 µM; with LOX IMVI melanoma, > 100 µM; with OVCAR-8 ovarian, > 100 µM; with NCI-H522 lung, > 100 µM; in the assay on SR leukemia, 76.2 µM. The concentration for total growth inhibition (TGI) in the assay with SN12C renal was 72.3 µM; with KM12 colon, > 100 µM; in the assay with EKVX NSCLC, > 100 µM; with PC-3 prostate, > 100 µM.

In the case of `CC(=O)c1ccc2c3c1[C@@H]1O[C@@H]1c1cccc(c1-3)[C@@H]1O[C@H]21`, the TGI in the assay on HL-60(TB) leukemia was 35 µM; in the assay on IGROV1 ovarian it was 2.44 µM; in the assay with LOX IMVI melanoma it was 6.21 µM; in the assay with OVCAR-8 ovarian, 18.1 µM; in the assay with NCI-H522 lung, 13 µM; with SR leukemia, > 100 µM. The TGI in the assay on SN12C renal was 23.9 µM; with KM12 colon, 21.4 µM; with EKVX NSCLC, 39.5 µM; in the assay with PC-3 prostate, > 52.3 µM. In addition, the GI50 (usually the concentration giving 50% growth inhibition) in the assay with LOX IMVI melanoma was 2.6 µM.

For the compound `C1CNCCNCCN1`, the TGI in the assay on HL-60(TB) leukemia, with IGROV1 ovarian, with LOX IMVI melanoma, with OVCAR-8 ovarian, in the assay with NCI-H522 lung and in the assay on SR leukemia was > 100 µM throughout. Further, the TGI in the assay with SN12C renal, in the assay on KM12 colon, with EKVX NSCLC and with PC-3 prostate was > 100 µM each time.

`CCOC(=O)/C=C(\C(=O)OCC)n1cc(C)c(=O)n(Cc2cnnn2CCCCOC(C)=O)c1=O`: the TGI in the assay with HL-60(TB) leukemia stood at 6.73 µM; with IGROV1 ovarian, 28.1 µM; with LOX IMVI melanoma it was 18.9 µM; in the assay with OVCAR-8 ovarian, 15.6 µM; with NCI-H522 lung, 3.33 µM; in the assay with SR leukemia it was 5.86 µM. Moreover, the TGI was 39.3 µM with SN12C renal, 34.4 µM in the assay with KM12 colon, 25.2 µM in the assay with EKVX NSCLC and > 71.3 µM with PC-3 prostate.

As for `CCC(C#N)NC(=O)NC(C#N)CC` (stereo unspecified), the TGI with HL-60(TB) leukemia, in the assay on IGROV1 ovarian, in the assay with LOX IMVI melanoma, in the assay with OVCAR-8 ovarian, in the assay on NCI-H522 lung and with SR leukemia was > 100 µM each time. In addition, the TGI in the assay on SN12C renal, in the assay on KM12 colon, with EKVX NSCLC and in the assay on PC-3 prostate was > 100 µM each time.

`CCCSc1ccc2[nH]c(/N=C/c3ccco3)cc2c1`: the TGI in the assay with HL-60(TB) leukemia was 84.4 µM; with IGROV1 ovarian it was > 100 µM; in the assay on LOX IMVI melanoma, > 100 µM; in the assay with OVCAR-8 ovarian it was > 100 µM; in the assay on NCI-H522 lung, 78.2 µM; in the assay with SR leukemia it was 35.7 µM. The TGI with SN12C renal is > 100 µM; in the assay on KM12 colon, > 100 µM; in the assay on EKVX NSCLC it was 68.8 µM; in the assay on PC-3 prostate, > 100 µM.

Regarding `Cc1cc(C2(O)C=C(C(C)(C)C)C(=O)C(C(C)(C)C)=C2)c(C)cc1C1(O)C=C(C(C)(C)C)C(=O)C(C(C)(C)C)=C1`, the concentration for total growth inhibition (TGI) with HL-60(TB) leukemia, in the assay on IGROV1 ovarian, in the assay with LOX IMVI melanoma, in the assay with OVCAR-8 ovarian, with NCI-H522 lung and with SR leukemia was > 100 µM in each case. Moreover, the TGI in the assay with SN12C renal, in the assay on KM12 colon, with EKVX NSCLC and in the assay with PC-3 prostate was > 100 µM throughout.

Take `CCOC(=O)/C=C(/C(=O)OCC)n1ccc(N)nc1=O`: the TGI was > 100 µM in the assay on HL-60(TB) leukemia; > 100 µM in the assay with IGROV1 ovarian; > 100 µM in the assay on LOX IMVI melanoma; > 100 µM in the assay with OVCAR-8 ovarian; 54.8 µM in the assay with NCI-H522 lung; > 100 µM in the assay on SR leukemia. Further, the TGI in the assay on SN12C renal, in the assay with KM12 colon, in the assay on EKVX NSCLC and in the assay with PC-3 prostate was > 100 µM throughout.

Regarding `O=c1c2ncn(COCCCl)c2n(-c2ccccc2)c(=S)n1-c1ccccc1`, the TGI in the assay with HL-60(TB) leukemia, in the assay with IGROV1 ovarian, in the assay on LOX IMVI melanoma, in the assay on OVCAR-8 ovarian, in the assay with NCI-H522 lung and in the assay with SR leukemia was > 100 µM throughout. In addition, the TGI in the assay on SN12C renal, with KM12 colon, with EKVX NSCLC and with PC-3 prostate was > 100 µM in each case.

Take `COc1ccc(/C=N/N=C(\N)NO)c(O)c1`: the TGI with HL-60(TB) leukemia, in the assay with IGROV1 ovarian, in the assay on LOX IMVI melanoma, with OVCAR-8 ovarian, with NCI-H522 lung and in the assay with SR leukemia was > 10 µM throughout. Further, the concentration for total growth inhibition (TGI) in the assay on SN12C renal, in the assay on KM12 colon, in the assay on EKVX NSCLC and in the assay on PC-3 prostate was > 10 µM in each case.

Take `CC(=O)O[C@H]1CC[C@@]2(C)C(=CC[C@H]3[C@@H]4C[C@H](N5CCCC5)[C@H](OC(C)=O)[C@@]4(C)CC[C@@H]32)C1`: the TGI was > 80.9 µM in the assay on HL-60(TB) leukemia; > 100 µM with IGROV1 ovarian; > 100 µM with LOX IMVI melanoma; > 100 µM in the assay on OVCAR-8 ovarian; > 100 µM in the assay on NCI-H522 lung; > 100 µM with SR leukemia. The TGI in the assay with SN12C renal, in the assay on KM12 colon, with EKVX NSCLC and in the assay with PC-3 prostate was > 100 µM throughout.

Take `NCCN=C(Nc1ccccc1)Nc1ccccc1`: the TGI in the assay with HL-60(TB) leukemia, with IGROV1 ovarian, in the assay with LOX IMVI melanoma, with OVCAR-8 ovarian, with NCI-H522 lung and in the assay on SR leukemia was > 100 µM each time. Besides, the TGI in the assay with SN12C renal, in the assay on KM12 colon, in the assay with EKVX NSCLC and with PC-3 prostate was > 100 µM in each case.

Turning to `O=C(O)c1ccc(S(=O)(=O)c2ccccc2[N+](=O)[O-])cc1`, the TGI with HL-60(TB) leukemia, in the assay with IGROV1 ovarian, in the assay on LOX IMVI melanoma, in the assay on OVCAR-8 ovarian, in the assay on NCI-H522 lung and in the assay with SR leukemia was > 10 µM throughout. The TGI in the assay on SN12C renal, in the assay with KM12 colon, in the assay on EKVX NSCLC and in the assay on PC-3 prostate was > 10 µM in each case.

`COc1ccc(Nc2nc(NS(=O)(=O)c3cc(C)c(Cl)cc3S)n[nH]2)cc1`: the TGI in the assay on HL-60(TB) leukemia, in the assay on IGROV1 ovarian, in the assay with LOX IMVI melanoma, in the assay with OVCAR-8 ovarian, in the assay with NCI-H522 lung and with SR leukemia was > 100 µM throughout. The TGI with SN12C renal, with KM12 colon, in the assay with EKVX NSCLC and in the assay with PC-3 prostate was > 100 µM each time.

For the compound `CN(O)C(=O)c1cccc(Cl)c1`, the TGI in the assay on HL-60(TB) leukemia, in the assay on IGROV1 ovarian, in the assay on LOX IMVI melanoma, in the assay with OVCAR-8 ovarian, in the assay with NCI-H522 lung and with SR leukemia was > 100 µM each time. Besides, the TGI in the assay on SN12C renal, in the assay with KM12 colon, in the assay with EKVX NSCLC and in the assay on PC-3 prostate was > 100 µM throughout.

As to `COC(=O)C1=CC(=O)OC1(OO)c1ccccc1` (stereo unspecified), the TGI with HL-60(TB) leukemia is 20.4 µM; in the assay on IGROV1 ovarian, > 100 µM; in the assay with LOX IMVI melanoma, > 100 µM; in the assay on OVCAR-8 ovarian it was > 100 µM; with NCI-H522 lung, > 100 µM; with SR leukemia it was > 100 µM. Moreover, the TGI in the assay with SN12C renal, with KM12 colon, in the assay with EKVX NSCLC and in the assay on PC-3 prostate was > 100 µM in each case.

Values taken from PubChem BioAssay (NCI).
